From article PMC8744071 (ACS infectious diseases, 2021) come the findings set out here.

“Also recorded” adds a separate entry of the source. Where a SMILES comes first, the peptide text is derived from it. Primed or numbered codes have the meaning given here. Where no end group is shown, it is not given here. Side-chain parts run from the residue outwards. [ ]: non-standard residue; d: D form. The star is where a group is joined. CB‑TE1A1P = O=C(CN1CCCN2CCN(CCCN(CP(=O)(O)O)CC2)CC1)*; cinnamoyl = O=C(/C=C/c1ccccc1)*; PEG12′ = not defined here

The subject of series [1] is lung granulomas. The note with it: cynomolgus monkey, in vivo.
Series [2] in a line: Gamma counting of Percoll-separated blood fractions. Type of series: in vivo, cynomolgus macaques (Macaca fascicularis). The note with it: Percoll gradient separation: RBC pellet, buffy coat, plasma.
Series [3] deals with T1, FPR1 (Homo sapiens, UniProt P21462).
T1 sequence (P21462 1-350): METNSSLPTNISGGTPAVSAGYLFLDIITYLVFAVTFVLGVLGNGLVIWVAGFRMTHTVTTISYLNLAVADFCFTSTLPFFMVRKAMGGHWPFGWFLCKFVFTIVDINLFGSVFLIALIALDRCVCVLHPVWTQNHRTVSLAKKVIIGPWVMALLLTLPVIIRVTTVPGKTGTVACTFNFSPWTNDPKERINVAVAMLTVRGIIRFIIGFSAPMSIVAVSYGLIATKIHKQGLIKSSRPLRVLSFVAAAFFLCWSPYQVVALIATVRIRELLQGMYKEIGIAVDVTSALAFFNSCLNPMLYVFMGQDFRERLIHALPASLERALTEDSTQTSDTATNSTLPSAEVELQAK
Description: FPR1 receptor internalization in GFP-FPR1 HEK293T cells. The class given is cell-based. The note with it: fluorescence imaging, vs untreated controls.

The subject of series [4] is Gr-1 stained neutrophils. Description: Immunofluorescence microscopy of CFA-injected mouse paws. The class given is in vivo. The note with it: inflamed mouse paw, 5 h postprobe injection, frozen sections.

“2-deoxy-2-(^18F)fluoro-D-glucose [^18F-FDG]”: in series [1], the “18F-FDG liver uptake by PET/CT” value is “minimal” and the “18F-FDG uptake in lung granulomas by PET/CT” value is recorded as “readily identifiable above lung background”. For the compound `CC(C)C[C@@H](NC(=O)[C@H](Cc1ccccc1)NC(=O)[C@@H](CC(C)C)NC(=O)[C@H](Cc1ccccc1)NC(=O)C=Cc1ccccc1)C(=O)N[C@@H](Cc1ccccc1)C(=O)O` [FLFLF, N-cinnamoyl-F-(D)L-F-(D)L-F] (HELM PEPTIDE1{[O=C(C=Cc1ccccc1)[*:2]].F.[dL].F.[dL].F}$$$$V2.0), the “Distribution of FLFLF in peripheral blood fractions” value in series [2] is “remains in the plasma fraction rather than being bound to blood cells”.

Consider “FLFLF-PEG12: pegylated FLFLF tested for FPR1 internalization (cinnamoyl-F[dL]F[dL]FK([PEG12′-CB‑TE1A1P]); also: CB-TE1A1P chelating 64Cu)”, for which, in series [3], the “FPR1 internalization / signaling” value was “did not lead to internalized receptor”. Turning to “cinnamoyl-F(D)LF(D)LFK-PEG12-Cy3 [Cy3-FLFLF]”, in series [4], the “Cy3-FLFLF labeling of cells in tissue / colocalization with Gr-1” value is “labeled neutrophils could be detected in tissues by immunofluorescence, although other non-Gr-1-stained cells were detectable; also recorded: variable amounts of colocalization of Cy3-FLFLF and Gr-1”.
